A melting point compilation (Tetko et al.)
Residues, ends and D or L forms follow the SMILES beside them. *: point of attachment. Boc = CC(C)(C)OC(=O)*

Question: Which melting point does the source give for `O=c1[nH]c(-c2ccccc2Br)cs1` here?
Answer: 169 to 171 °C

Question: With `CNC(=O)c1c(Cl)ccc(S(=O)(=O)NC)c1Cl` as the compound, how does the melting point read?
Answer: 231 to 233 °C

Question: With `O=C(O)CSc1ccccc1[N+](=O)[O-]` as the compound, how does the melting point read?
Answer: 166 to 168 °C

Question: With `O=C(O)c1cc([N+](=O)[O-])ccc1N1CCCCC1` as the compound, how does the melting point read?
Answer: 194 to 196 °C

Question: With `O=C(O)C1CCCCN1C1=NS(=O)(=O)c2ccccc21` (stereo unspecified) as the compound, how does the melting point read?
Answer: 185 to 187 °C

Question: Which melting point does the source give for `COc1cc(C(=O)O)ccc1OCC(=O)NC(C)C` here?
Answer: 193 to 195 °C

Question: With `O=C(O)CN1C(=O)c2ccccc2S1(=O)=O` as the compound, how does the melting point read?
Answer: 218 to 220 °C

Question: Which melting point does the source give for `CC1(C)NC(=O)N(Cc2ccc(C#N)cc2)C1=O` here?
Answer: 167 to 169 °C

Question: With `COc1ccc2cc(CO)ccc2c1` as the compound, how does the melting point read?
Answer: 122 to 124 °C

Question: Which melting point does the source give for `CCOC(=O)c1c(C)c2c(=O)[nH]nc(S)n2c1C` here?
Answer: 218 to 220 °C

Question: Which melting point does the source give for `O=C(O)CN1C(=O)Cc2ccccc2C1=O` here?
Answer: 246 to 248 °C

Question: For `Cc1ccc(-c2nnc(Cl)c3ccccc23)cc1`, which melting point is on record?
Answer: 145 to 147 °C

Question: Which melting point does the source give for `Cc1ccc(-c2nc(C(=O)O)cs2)n1C` here?
Answer: 139 to 141 °C

Question: For `CSCc1c(C(=O)O)oc2ccccc12`, which melting point is on record?
Answer: 100 to 102 °C

Question: For `CC(Cl)C(=O)Nc1cccc(S(=O)(=O)N2CCCCC2)c1` (stereo unspecified), which melting point is on record?
Answer: 163 to 165 °C

Question: For `Nc1cc(F)c(F)cc1N`, which melting point is on record?
Answer: 126 to 130 °C

Question: For `CCc1ccc2c(c1)C(=O)C(=O)N2C`, which melting point is on record?
Answer: 96 to 98 °C

Question: With `CCCNc1ccc(Cl)cc1N` as the compound, how does the melting point read?
Answer: 62 to 64 °C

Question: With `CC(=O)NCc1ccc(C(=O)O)s1` as the compound, how does the melting point read?
Answer: 186 to 188 °C

Question: With `O=c1oc2ccccc2n1CCO` as the compound, how does the melting point read?
Answer: 104 to 106 °C

Question: For `CCOC(=O)c1sc2nc(CCl)nc(Cl)c2c1C`, which melting point is on record?
Answer: 168 to 170 °C

Question: For `O=C1COc2ccc(F)cc2N1`, which melting point is on record?
Answer: 204 to 206 °C

Question: Which melting point does the source give for `CC1(Cc2ccc3c(c2)OCO3)NC(=O)NC1=O` (stereo unspecified) here?
Answer: 183 to 185 °C

Question: Which melting point does the source give for `CCS(=O)(=O)Nc1ccc(N)cc1C` here?
Answer: 101 to 103 °C

Question: With `O=C(O)c1ccc2c(=O)n(-c3cccc(Cl)c3)c(=O)[nH]c2c1` as the compound, how does the melting point read?
Answer: 365 to 367 °C

Question: With `CCOc1cc(C=O)ccc1OCc1c(Cl)cccc1Cl` as the compound, how does the melting point read?
Answer: 115 to 117 °C

Question: With `CC(C)N1CCC(C(=O)O)CC1` as the compound, how does the melting point read?
Answer: 168 to 170 °C

Question: With `Cc1ccccc1-n1c(S)nc2ccccc2c1=O` as the compound, how does the melting point read?
Answer: 96 to 97 °C

Question: For `Cc1ccc(C)c(S(=O)(=O)N2CCNCC2)c1`, which melting point is on record?
Answer: 108 to 110 °C

Question: Which melting point does the source give for `COc1ccc(C(=O)CBr)cc1Cl` here?
Answer: 99 to 101 °C

Question: Which melting point does the source give for `O=C(C=NO)Nc1ccc(F)cc1Cl` here?
Answer: 145 to 147 °C

Question: With `CSc1ccc(NC(=O)C(C)Cl)cc1` (stereo unspecified) as the compound, how does the melting point read?
Answer: 129 to 131 °C

Question: For `FC(F)(F)c1ccc2c(c1)NCCO2`, which melting point is on record?
Answer: 94 to 96 °C

Question: With `O=Cc1ccc(OCC(=O)O)c([N+](=O)[O-])c1` as the compound, how does the melting point read?
Answer: 156 to 158 °C

Question: For `O=C(O)C1CCCN1C(=O)Cc1cn2ccsc2n1` (stereo unspecified), which melting point is on record?
Answer: 121 to 123 °C

Question: With `Cn1c(S)nc2ccccc21` as the compound, how does the melting point read?
Answer: 190 to 194 °C

Question: With `CC1(c2ccc(F)cc2F)NC(=O)NC1=O` (stereo unspecified) as the compound, how does the melting point read?
Answer: 194 to 196 °C

Question: Which melting point does the source give for `N#Cc1c([N+](=O)[O-])cccc1S(=O)(=O)Cl` here?
Answer: 89 to 91 °C

Question: For `CCOC(=O)c1[nH]nc2ccc(Br)cc12`, which melting point is on record?
Answer: 231 to 233 °C

Question: For `CCOC(=O)COc1cccc(Br)c1`, which melting point is on record?
Answer: 40 to 42 °C

Question: For `NC(=S)CCc1ccccc1`, which melting point is on record?
Answer: 82 to 84 °C

Question: With `CCCCS(=O)(=O)Nc1ccc(S(=O)(=O)Cl)cc1` as the compound, how does the melting point read?
Answer: 123 to 125 °C

Question: With `CCOC(C)c1nc(CC(=O)O)cs1` (stereo unspecified) as the compound, how does the melting point read?
Answer: 91 to 93 °C

Question: Which melting point does the source give for `CCOC(=O)c1c(N)sc(C)c1CC` here?
Answer: 45 to 47 °C

Question: With `N#CCC(=O)c1cc2ccccc2o1` as the compound, how does the melting point read?
Answer: 146 to 148 °C

Question: With `CC(C)(C)OC(=O)Nc1cc2ccccc2cc1C(=O)O` as the compound, how does the melting point read?
Answer: 179 to 181 °C

Question: Which melting point does the source give for `CC(Cl)C(=O)c1ccc(Cl)cc1` (stereo unspecified) here?
Answer: 58 to 60 °C

Question: For `CCOC(=O)c1cnn(-c2ccc(C(F)(F)F)cn2)c1C`, which melting point is on record?
Answer: 88 to 90 °C

Question: Which melting point does the source give for `COc1cccc(N2CC(C(=O)O)CC2=O)c1` (stereo unspecified) here?
Answer: 166 to 168 °C

Question: Which melting point does the source give for `Clc1cc(Cl)cc(OCC2CCNCC2)c1` here?
Answer: 59 to 61 °C

Question: For `CS(=O)(=O)c1cccc(C(N)c2ccccc2)c1` (stereo unspecified), which melting point is on record?
Answer: 48 to 50 °C

Question: Which melting point does the source give for `CS(=O)(=O)NCCC1CCCCN1` (stereo unspecified) here?
Answer: 105 to 107 °C

Question: Which melting point does the source give for `Cc1sc2nc(-c3ccccn3)nc(Cl)c2c1-c1ccccc1` here?
Answer: 166 to 168 °C

Question: For `COc1ccc(S(=O)(=O)Cl)c(C)c1F`, which melting point is on record?
Answer: 90 to 92 °C

Question: With `N#CCC(=O)NCCc1ccccc1` as the compound, how does the melting point read?
Answer: 91 to 93 °C

Question: With `COC(=O)NCC(=O)O` as the compound, how does the melting point read?
Answer: 93 to 95 °C

Question: With `Cn1c(CCC(=O)O)nc(=O)c2ccccc21` as the compound, how does the melting point read?
Answer: 200 to 202 °C

Question: Which melting point does the source give for `COc1ccc(NC(=O)COc2ccccc2C(=O)O)cc1Cl` here?
Answer: 229 to 231 °C

Question: For `O=[N+]([O-])c1ccccc1CSc1ccc(C(F)(F)F)cn1`, which melting point is on record?
Answer: 64 to 66 °C

Question: For `NNc1ccc(S(N)(=O)=O)cn1`, which melting point is on record?
Answer: 190 to 192 °C

Question: With `Cc1cc(NC(=O)C2CCCCC2C(=O)O)[nH]n1` (stereo unspecified) as the compound, how does the melting point read?
Answer: 114 to 116 °C

Question: With `CC(=O)CCCCCCC(=O)O` as the compound, how does the melting point read?
Answer: 38 to 40 °C

Question: For `O=[N+]([O-])c1ccc(-c2cn3ccsc3n2)cc1`, which melting point is on record?
Answer: 284 to 286 °C

Question: With `Cc1cccc(C(=O)N2CCSCC2)c1N` as the compound, how does the melting point read?
Answer: 113 to 115 °C

Question: For `Brc1ccn2nccc2n1`, which melting point is on record?
Answer: 131 to 133 °C

Question: Which melting point does the source give for `CCc1cccc(N2CC(C(=O)O)CC2=O)c1` (stereo unspecified) here?
Answer: 120 to 122 °C

Question: With `CC(=O)Nc1cccc(F)c1C(=O)O` as the compound, how does the melting point read?
Answer: 202 to 204 °C

Question: For `CC(=O)c1ccc2c(c1)Nc1ccccc1S2`, which melting point is on record?
Answer: 180 to 185 °C

Question: For `O=C(O)c1cc2c(c(S(=O)(=O)Cl)c1)CCC2`, which melting point is on record?
Answer: 197 to 199 °C

Question: With `CC(C)(C)OC(=O)NCC(=O)NCC(=O)O` (Boc-Gly-Gly-OH) as the compound, how does the melting point read?
Answer: 119 to 121 °C

Question: For `COc1ccc(OC)c(-c2nn(-c3ccccc3)cc2C(=O)O)c1`, which melting point is on record?
Answer: 174 to 176 °C

Question: For `O=C(O)CCSCc1ccccn1`, which melting point is on record?
Answer: 74 to 76 °C

Question: Which melting point does the source give for `N#CCc1cc2ccccc2nc1Cl` here?
Answer: 128 to 130 °C

Question: Which melting point does the source give for `O=C1CCN(C2CC2)CCN1` here?
Answer: 98 to 100 °C

Question: With `NS(=O)(=O)CC1CC1` as the compound, how does the melting point read?
Answer: 45 to 47 °C

Question: For `C/C(=C\C(=O)O)C12CC3CC(CC(C3)C1)C2`, which melting point is on record?
Answer: 169 to 171 °C

Question: Which melting point does the source give for `CC(C)n1[nH]ccc1=NC(=O)OCC(F)(F)F` here?
Answer: 77 to 79 °C

Question: With `Nc1ccccc1SCC(O)c1ccccc1` (stereo unspecified) as the compound, how does the melting point read?
Answer: 61 to 63 °C

Question: Which melting point does the source give for `O=S1(=O)CCNc2ccccc21` here?
Answer: 139 to 141 °C

Question: Which melting point does the source give for `CNS(=O)(=O)C1CCNCC1` here?
Answer: 168 to 170 °C

Question: With `Cc1ncc(C=O)n1-c1ccc(Br)cc1` as the compound, how does the melting point read?
Answer: 110 to 112 °C

Question: For `C1CCc2nnc(C3CCCN3)n2CC1` (stereo unspecified), which melting point is on record?
Answer: 91 to 93 °C

Question: With `CC(C)NS(=O)(=O)c1cccc(C(=O)O)c1` as the compound, how does the melting point read?
Answer: 162 to 164 °C

Question: With `CCc1nn(C)c(Cl)c1C=O` as the compound, how does the melting point read?
Answer: 38 to 40 °C

Question: With `COC(=O)CCCNc1nc2ccccc2s1` as the compound, how does the melting point read?
Answer: 114 to 116 °C

Question: For `O=[N+]([O-])c1ccc(C2NCCS2)cc1` (stereo unspecified), which melting point is on record?
Answer: 124 to 126 °C

Question: For `COC(=O)c1ccc(O)nc1C`, which melting point is on record?
Answer: 222 to 224 °C

Question: With `Nc1cnn(-c2ccccc2F)c1` as the compound, how does the melting point read?
Answer: 59 to 61 °C

Question: Which melting point does the source give for `CC1(c2cccc(N)c2)NC(=O)NC1=O` (stereo unspecified) here?
Answer: 78 to 80 °C

Question: For `Nc1cccc(S(=O)(=O)Nc2nccs2)c1`, which melting point is on record?
Answer: 170 to 172 °C

Question: With `O=S(=O)(NC1CC1)C1CCN(Cc2ccccc2)C1` (stereo unspecified) as the compound, how does the melting point read?
Answer: 94 to 96 °C

Question: For `N#CCc1ccnc(N)c1`, which melting point is on record?
Answer: 104 to 106 °C

Question: For `COC(=O)C(=O)CC(=O)c1ccncc1`, which melting point is on record?
Answer: 93 to 95 °C

Question: With `c1ccc2c(c1)NCCCS2` as the compound, how does the melting point read?
Answer: 22 to 24 °C

Question: With `O=C(O)c1sccc1SC(F)F` as the compound, how does the melting point read?
Answer: 117 to 119 °C

Question: With `CC(=O)Cn1c(CCl)nc2sc3c(c2c1=O)CCCC3` as the compound, how does the melting point read?
Answer: 132 to 134 °C

Question: With `O=C(O)c1cc(S(=O)(=O)Nc2ccc(F)cc2)ccc1Cl` as the compound, how does the melting point read?
Answer: 205 to 207 °C

Question: Which melting point does the source give for `Cc1ccc(C(=O)O)cc1NC(=O)c1ccc(Br)cc1` here?
Answer: 309 to 311 °C

Question: For `COc1cc(CC#N)cc(Br)c1OC(F)F`, which melting point is on record?
Answer: 200 to 203 °C

Question: Which melting point does the source give for `COC(=O)c1c(C)[nH]c(C(=O)O)c1C` here?
Answer: 206 to 208 °C

Question: Which melting point does the source give for `CC(C)NC(=O)CSc1ccccc1C(=O)O` here?
Answer: 181 to 185 °C
